Laboratory results taken from publication PMC11920571, “Esc peptides and derivatives potentiate the activity of CFTR with gating defects and display antipseudomonal activity in cystic fibrosis-like lung disease” (Cellular and Molecular Life Sciences: CMLS, 2025).
Non-standard residues stand in square brackets, D forms with d. Residues, ends and D or L forms follow the SMILES beside them. No end group written: not given here. Aib = CC(C)(N)C(=O)O

Experiments:
[1] = system: Gram-negative bacterial strains and Staphylococcus aureus; assay: MIC determination, summary over the strain panel; assay type: cell-based; conditions: summary of Table 3
Description: Peptides were tested against the Gram-negative Escherichia coli ATCC 25922, Ainetobacter baumannii ATCC 19606, P. aeruginosa ATCC 27853, P. aeruginosa PAO1; and the Gram-positive S. aureus ATCC 25923, MDR#1, MDR#2, MDR#3 and MDR#4. The MIC values were determined as previously reported. Briefly, bacteria were grown at 37 °C in Luria-Bertani broth (LB) until an optical density (OD) of 0.8 was reached (λ=590 nm). Aliquots of bacteria (50 µL) were added to each well of a 96-multiwell plate containing serial dilutions of the tested peptides in Mueller Hinton broth (MH). The final cell concentration was 1x10^6 CFU/ml.

P. aeruginosa PAO1 [2] = assay: Co-culture (biotic biofilm) on polarized airway epithelium at ALI; assay type: cell-based; conditions: 20 μM peptide in PBS for 2 h; PAO1 grown 6 h on polarized homozygous F508del airway epithelium at ALI; vs PBS
Description: This assay was performed using co-cultures of polarized and well-differentiated human bronchial epithelial cells derived from a homozygous F508del patient and P. aeruginosa PAO1 grown to a log phase. Polarized human epithelia in transwell permeable supports and maintained in ALI culture were inoculated with P. aeruginosa PAO1 in 50 µl of cell culture medium (initial inoculum of 200 bacterial cells per ALI culture insert, according to [75]) at the apical side of the supports for 1 h to allow attachment of the bacteria to the epithelium in ALI culture. Unattached bacteria were removed and the supports incubated (37 °C; 5% CO₂) for 5 h prior to the addition of peptide. Each peptide, at 20 μM, diluted in 100 µl PBS, was added for 2 h. After a total of 8 h, the airways surface liquid was collected and aliquots poured on plates for counting. Afterwards, the epithelium was disrupted by adding 150µl Tripsin-EDTA and incubated for 15 min. Subsequently, 200 µl Triton X-100 (0.1%) was added and the supports incubated again for 15 min. Serial dilution and counting of bacterial cells was performed on tryptic soy agar plates to determine the number of CFU.

F508del-CFBE41o- cells = conditions: 20 μM peptide, 24 h, CCK-8, absorbance 450 nm
Description: The Cell Counting Kit 8 (CCK-8) assay was performed as follows to assess cell viability. About 1×10^4 F508del-CFBE41o- cells were seeded in each well of a 96-well plate and incubated at 37 °C and 5% CO2. After 24 h, the medium was replaced by MEM supplemented with 2 mM L-glutamine and containing each peptide at different concentrations. The plate was incubated for 24 h and subsequently 10 μl of CCK-8 reagent were added to each well. After 2 h incubation, the absorbance of each well was measured at 450 nm using a microplate reader (Infinite M200; Tecan, Salzburg, Austria).

P. aeruginosa PAO1 [3] = assay: Murine lung infection model, wild-type littermates; assay type: in vivo, mice; conditions: 0.1 mg/kg (20 μM) i.t. 1 h after i.t. ~3 x 10^6 CFU PAO1, lungs at 24 h, three independent experiments
Description: (§1) The animal experiments were performed according to a protocol (protocol 23083347) approved by the Institutional Animal Care and Use Committee (IACUC) of the University of Pittsburgh based on the NIH guide for the care and use of laboratory animals. Transgenic mice with expression of the protein-coding region of the mouse Scnn1b (β-ENaC) and driven by rat airway-specific Scgb1a1 (also called the Clara cell secretory protein) gene were previously described and obtained from Dr. Wanda O'Neal from the University of North Carolina at Chapel Hill. β-ENaC mice in C57BL/6 genetic background were maintained in heterozygous conditions and continuously bred with C57BL/6 wild-type mice. Genotyping was performed for all pups to identify their respective genotypes. Mice expressing β-ENaC and their wild-type littermates at the same ages were used for experiments. Seven-week-old female and male mice were anesthetized by isoflurane inhalation and instilled intratracheally with ~3 x 10^6 CFU of P. aeruginosa PAO1 in 50 µl PBS. […] Control mice were given 50 µl of PBS without peptide. After 24 h, lungs were harvested, four right lobes of each mouse lung were homogenised, serial diluted to determine the total lung bacterial burden, according to the published method.

P. aeruginosa PAO1 [4] = assay: Murine lung infection model, β-ENaC transgenic mice; assay type: in vivo; conditions: for lowering of lung bacterial burden (CFU): 0.1 mg/kg (20 μM) i.t. 1 h after i.t. ~3 x 10^6 CFU PAO1, lungs at 24 h, three independent experiments
Description: as §1

[5] = system: intracellular calcium in null FRT cells; assay: Microplate reader Fluo-4 Ca2+ assay; assay type: cell-based, rat; conditions: peptides 10 µM each, UTP 100 µM (Fig. 7) or 10 µM (method), acute addition
Description: Experiments for the evaluation of intracellular calcium mobilization were performed using an automated micro-plate reader (FluoStar) equipped with syringe pumps and optical excitation/emission filters (500/535 nm). FRT cells were cultured until confluence in 96-well microplates. Before starting the assay, cells were washed 3 times with complete PBS (200 μl/wash) and then loaded for 1 h at 37 °C with 5 μM Fluo-4/AM (Thermo Fisher Scientific) in PBS containing 10 mM glucose, 0.5 mM sulfinpyrazone and 1% fetal bovine serum. After loading, cells were washed twice with PBS (120 μl/wash) and incubated for 15 min at 37 °C with 100 μl of PBS plus 10 mM glucose and 0.5 mM sulfinpyrazone. The assay was run on one well at a time by programming the plate reader to acquire the fluorescence emitted from each well every 0.2 s for 120 s. At 2.8 s from the start of reading, the plate reader injected 100 μl of PBS (with glucose and sulfinpyrazone) containing vehicle alone (DMSO), peptides (10 µM each) or UTP (10 µM).

G551D-CFTR = target: T1, G551D-CFTR (Homo sapiens, UniProt P13569, G551D); assay: TEER/transepithelial conductance in G551D-FRT cells; assay type: cell-based; conditions: 20 µM FSK + 10 µM peptide, 10 min, n ≥ 6
T1 construct: expressed in transfected cells
T1 sequence (P13569 whole entry G551D): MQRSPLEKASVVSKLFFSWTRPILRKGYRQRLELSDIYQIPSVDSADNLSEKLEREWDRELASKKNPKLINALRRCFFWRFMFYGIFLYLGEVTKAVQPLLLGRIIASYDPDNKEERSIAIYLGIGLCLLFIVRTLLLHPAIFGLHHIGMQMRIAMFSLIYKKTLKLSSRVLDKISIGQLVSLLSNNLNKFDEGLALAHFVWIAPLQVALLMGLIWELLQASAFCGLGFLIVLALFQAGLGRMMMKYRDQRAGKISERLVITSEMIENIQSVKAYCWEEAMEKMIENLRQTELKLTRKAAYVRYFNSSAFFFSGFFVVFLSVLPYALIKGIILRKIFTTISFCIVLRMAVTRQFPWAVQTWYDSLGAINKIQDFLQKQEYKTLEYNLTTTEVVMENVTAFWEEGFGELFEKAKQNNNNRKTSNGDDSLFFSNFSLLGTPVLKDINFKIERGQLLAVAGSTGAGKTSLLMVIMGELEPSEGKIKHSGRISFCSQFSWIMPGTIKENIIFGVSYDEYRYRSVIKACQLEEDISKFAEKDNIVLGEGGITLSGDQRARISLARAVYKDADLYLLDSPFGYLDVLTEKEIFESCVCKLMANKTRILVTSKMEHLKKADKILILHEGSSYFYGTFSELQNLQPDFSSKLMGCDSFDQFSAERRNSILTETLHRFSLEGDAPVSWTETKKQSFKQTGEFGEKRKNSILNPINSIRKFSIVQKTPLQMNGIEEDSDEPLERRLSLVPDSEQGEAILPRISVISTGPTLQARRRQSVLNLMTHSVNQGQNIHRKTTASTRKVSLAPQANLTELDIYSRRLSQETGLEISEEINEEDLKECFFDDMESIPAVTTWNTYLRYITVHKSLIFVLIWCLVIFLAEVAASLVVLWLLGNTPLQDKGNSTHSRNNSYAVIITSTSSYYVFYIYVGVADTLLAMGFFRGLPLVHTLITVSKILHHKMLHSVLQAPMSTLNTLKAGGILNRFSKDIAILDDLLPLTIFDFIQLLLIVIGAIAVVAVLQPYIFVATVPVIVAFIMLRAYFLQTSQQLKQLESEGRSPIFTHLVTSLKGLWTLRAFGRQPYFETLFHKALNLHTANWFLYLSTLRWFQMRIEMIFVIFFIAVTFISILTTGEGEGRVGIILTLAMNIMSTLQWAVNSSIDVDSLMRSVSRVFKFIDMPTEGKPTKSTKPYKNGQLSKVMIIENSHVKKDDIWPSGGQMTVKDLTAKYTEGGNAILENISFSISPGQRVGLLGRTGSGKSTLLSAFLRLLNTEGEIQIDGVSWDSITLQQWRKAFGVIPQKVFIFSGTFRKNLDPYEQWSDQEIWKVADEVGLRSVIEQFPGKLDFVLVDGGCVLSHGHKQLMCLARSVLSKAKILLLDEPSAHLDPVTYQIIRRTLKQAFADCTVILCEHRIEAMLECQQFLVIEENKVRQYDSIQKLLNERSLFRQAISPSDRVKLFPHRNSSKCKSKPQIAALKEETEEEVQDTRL
Description: (§2) To evaluate the effect of the peptides on the ion current controlled by CFTR, the transepithelial conductance was measured in epithelia formed by FRT expressing CFTR with different mutation. Cells were seeded on permeable supports (24 Millicell plates PSHT01QR1) and then incubated in their standard culture medium. Cells expressing F508del mutation were pretreated with 1 μM VX-809 to deliver the defective protein to the plasma membrane. After 24 h, the medium was replaced with saline solution containing (in mM): 130 NaCl, 2.7 KCl, 1.5 KH2PO4, 1 CaCl2, 0.5 MgCl2, 10 glucose, 10 Na-Hepes (pH, 7.4), which was added to both apical and basolateral compartments of the permeable supports. Initially, TEER was measured in basal conditions without CFTR activation, using the epithelial voltmeter (MILLICELL ERS-2, Millipore Burlington, MA). Afterwards, 20 μM FSK + 10 μM GEN (as positive control) or FSK+ peptides at the desired concentration were added on the apical side of the epithelium and TEER measurement was performed at 37 °C after 10 min from the addition of the compounds. Finally, TEER was measured after the addition of 30 μM PPQ102 to the apical side of the epithelium, to inhibit CFTR. From the values of TEER obtained before and after CFTR inhibition, the CFTR-dependent TEER was calculated, for each condition. All TEER values were converted to transepithelial conductance (TEEC) using the formula TEEC = 1/TEER [68].

G1349D-CFTR = target: T2, G1349D-CFTR (Homo sapiens, UniProt P13569, G1349D); assay: TEER/transepithelial conductance in G1349D-FRT cells; assay type: cell-based; conditions: 20 µM FSK + 10 µM peptide, 10 min, n ≥ 6
T2 construct: expressed in transfected cells
T2 sequence (P13569 whole entry G1349D): as the sequence (P13569 whole entry G551D) above, with D551G, G1349D counted along it
Description: as §2

P. aeruginosa = conditions: C57BL/6 mice, i.t. instillation at 0.1 mg/Kg (corresponding to 20 μM); cited from earlier work
Text: In the last years, we identified two antimicrobial peptides (AMPs), Esculentin-1a(1–21)NH2 [Esc(1–21)] and its diastereomer Esc(1–21)−1c (Esc peptides, Table 1), with a strong activity against the free-living and sessile forms of P. aeruginosa and with the ability to accelerate recovery of damaged bronchial epithelium.

CC[C@H](C)[C@H](NC(=O)CN)C(=O)N[C@@H](Cc1ccccc1)C(=O)N[C@@H](CO)C(=O)N[C@@H](CCCCN)C(=O)N[C@@H](CC(C)C)C(=O)N[C@@H](C)C(=O)NC(C)(C)C(=O)N[C@@H](CCCCN)C(=O)N[C@@H](CCCCN)C(=O)N[C@H](C(=O)N[C@@H](CCCCN)C(=O)N[C@@H](CC(N)=O)C(=O)N[C@@H](CC(C)C)C(=O)N[C@@H](CC(C)C)C(=O)N[C@H](C(=O)N[C@@H](CO)C(=O)NCC(=O)N[C@@H](CC(C)C)C(=O)N[C@@H](CCCCN)C(=O)NCC(N)=O)[C@@H](C)CC)[C@@H](C)CC [Esc_Aib-8, [Aib^8]-Esc(1–21)] (H-GIFSKLA[Aib]KKIKNLLISGLKG-NH2; N-terminus assumed)
ability to inhibit bacterial growth, in words [1]: the most active one against Gram-negative bacteria | reduction of bacterial load (ASL plus intracellular CFU) (P. aeruginosa PAO1 [2]): ~2 log10-unit | viable cells (F508del-CFBE41o- cells): more than 90% | reduction in the number of lung bacterial cells (CFU) (P. aeruginosa PAO1 [3]): ~ 2 log10 | lowering of lung bacterial burden (CFU) (P. aeruginosa PAO1 [4]): ~ 2 log10 | efficacy in lowering lung bacterial load, comparison in words (P. aeruginosa PAO1 [4]; 0.1 mg/kg i.t., lungs at 24 h): trend slightly stronger than that of Esc(1–21)−1c

O=c1ccn([C@@H]2O[C@H](COP(=O)(O)OP(=O)(O)OP(=O)(O)O)[C@@H](O)[C@H]2O)c(=O)[nH]1 [UTP]
change in Fluo-4 fluorescence (intracellular calcium) [5]: marked and rapid increase in fluorescence

GIFSKLAGKKIKNLLIEGLKG-NH2 [Esc-1C_DGlu-17, analog containing D-Glutamic acid at position 17]
variation in CFTR-mediated conductance (G551D-CFTR): no variation in CFTR-mediated conductance | variation in CFTR-mediated conductance (G1349D-CFTR): no variation in CFTR-mediated conductance | MIC increase versus reference Esc(1–21)−1c [1]: ~ 4 fold

GIFSKLAGKKIKNLLIEGLKG-NH2 [Esc_Glu-17, analog containing L-Glutamic acid at position 17]
variation in CFTR-mediated conductance (G551D-CFTR): no variation in CFTR-mediated conductance | variation in CFTR-mediated conductance (G1349D-CFTR): no variation in CFTR-mediated conductance | ability to inhibit bacterial growth, in words [1]: comparable to the reference Esc(1–21)−1c

GIFSKLAGKKIKNLLISGLKG-NH2 [Esc(1–21)−1c, diastereomer of Esc(1–21)]
reduction in the number of lung bacterial cells (CFU) (P. aeruginosa PAO1 [3]): ~ 2 log10 | lowering of lung bacterial burden (CFU) (P. aeruginosa PAO1 [4]): ~ 2 log10 | effect on lung bacterial burden (P. aeruginosa): reduce lung bacterial burden

Gly-Ile-Phe-Ser-Lys-Leu-Ala-Gly-Lys-Lys-Ile-Lys-Asn-Leu-Leu-Ile-phosphoSer-Gly-Leu-Lys-Gly-NH2 [D-phosphoEsc, isoform carrying a D-leucine at position 14 and D-phosphoserine at position 17]
CFTR-mediated conductance (∆G) relative to FSK alone (G551D-CFTR): at least 3 fold | CFTR-mediated conductance (∆G) relative to FSK alone (G1349D-CFTR): at least 3 fold

colistin [reference compound]
reduction in the number of lung bacterial cells (CFU) (P. aeruginosa PAO1 [3]): ~ 2 log10
